Measurements as given in patent US4150137A, “Pyridylalkyl esters of 2-(p-isobutylphenyl)acetic acid and propionic acids and use” (Hisamitsu Pharmaceutical Co. Inc., priority 1975, dated 1979).

Key:
male mice of dd-strain = assay type: in vivo; conditions: death of animals 72 hours following administration
Method: Each test compound suspended in 0.5% tragacanth-saline was administered intraperitoneally or orally to male mice of dd-strain(body weight 16-24 g). The lethal dose was estimated from the death of animals 72 hours following administration.

carrageenin edema = assay: Anti-inflammatory activity for oral route (carrageenin edema, hind paw); assay type: in vivo, rat (Wistar-strain); conditions: percent inhibition divided by that of ibuprofen, carrageenin edema after 3 hours; for anti-inflammatory effect, oral, 10 mg/kg (relative inhibition, ibuprofen = 1.0): 10 mg/kg oral; for anti-inflammatory effect, oral, 50 mg/kg (relative inhibition, ibuprofen = 1.0): 50 mg/kg oral
Method: After 30 minutes 0.5-1.0% carrageenin suspended in the water for injection was injected subcutaneously to a hind paw. After 3 hours the carrageenin edema was measured by volume, and the percent inhibition was determined with respect to the results for the control animals.

[1] = tested on: carrageenin-induced leakage of the pigment, dorsal skin; assay: Anti-inflammatory activity for topical route (carrageenin, leakage of pigment in dorsal skin); assay type: in vivo, rat (Wistar-strain); conditions: 1% in polyethylene glycol 300, percent inhibition divided by that of ibuprofen
Method: The dorsal skin of male rats of Wistar-strain(body weight: about 100 g) were depilated. Carrageenin suspension was injected intra-dermally at a dose of 250 γ/0.05 ml/site. […] Immediately after injection, the filter paper containing 125.2±18.0 mg of the polyethylene glycol was applied on the injected site. After 3 hours, 1% pontamine sky blue solution was injected intravenously at a dose of 0.5 ml/kg. After further 3 hours, the animals were sacrificed and their dorsal skin were removed to measure the area of leakage of the pigment. The percent inhibition was determined with respect to the results for the control animals.

writhing syndrome = assay: Analgetic activity (acetic acid writhing syndrome); assay type: in vivo, mouse (dd-strain); conditions: Mus musculus, 1 h; oral, mice, 0.6% acetic acid i.p. one hour later; Litchfield-Wilcoxon; read-out: analgetic effect ED50 (95% C.L.)
Method: Each test compound suspended in 0.5% tragacanth-saline was orally administered to dd-strain mice(body weight: 18-20 g). After one hour 0.6% acetic acid solution was injected intraperitoneally in a volume of 0.1 ml/10 g.

SMILES | acute toxicity, oral (lethal dose) (male mice of dd-strain) [mg/kg] | anti-inflammatory effect, oral, 10 mg/kg (relative inhibition, ibuprofen = 1.0) (carrageenin edema) | anti-inflammatory effect, oral, 50 mg/kg (relative inhibition, ibuprofen = 1.0) (carrageenin edema) | anti-inflammatory effect, topical (relative inhibition, ibuprofen = 1.0) [1] | ED50 (writhing syndrome) [mg/kg]
CC(C)Cc1ccc(C(C)C(=O)OCc2ccccn2)cc1 (stereo not shown) | 1000 to 2000 | 0.7 | 1.8 | 4.0 | 67.8
CC(C)Cc1ccc(C(C)C(=O)OCCN(C)C)cc1 (stereo not shown) | 1000 to 2000 | 0.8 | 1.2 | 2.0 | 53.7
CCOCCOC(=O)C(C)c1ccc(CC(C)C)cc1 (stereo not shown) [Compound 15] | > 2000 | 0.7 | 0.9 | 1.2 | 156
CC(C)Cc1ccc(C(C)C(=O)OCC2CC2)cc1 (stereo not shown) | 2000 | 0.8 | 1.6 | 3.7 | 103
CC(C)Cc1ccc(C(C)C(=O)OCCN2CCN(C)CC2)cc1 (stereo not shown) | 1000 to 2000 | 1.0 | 1.1 | 2.5 | 31.6
CC(C)Cc1ccc(C(C)C(=O)OCC2CCCO2)cc1 (stereo not shown) | 1000 to 2000 | 0.6 | 0.9 | 3.1 | 91.6
CCOCOC(=O)C(C)c1ccc(CC(C)C)cc1 (stereo not shown) [Compound 13] | > 2000 | 1.3 | 1.0 | 2.8 | 155
CCOC(=O)COC(=O)C(C)c1ccc(CC(C)C)cc1 (stereo not shown) [Compound 19] | > 2000 | 0.5 | 0.7 | 1.9 | 180
CC(C)Cc1ccc(C(C)C(=O)OCCOCCO)cc1 (stereo not shown) [Compound 16] | > 2000 | – | 0.9 | 2.3 | 151
CC(C)Cc1ccc(C(C)C(=O)OCc2ccc(Cl)cc2)cc1 (stereo not shown) | > 2000 | 0.5 | 1.0 | 2.8 | 486
